Drawing on patent publication US10040788B2, “1,3,4-thiadiazole compounds and their use in treating cancer” (AstraZeneca AB, priority 2014, dated 2018), this text covers IC50 for 22 compounds.

The experiment has as its system NCI-H1703 cells. Put plainly: GLS Cell Proliferation Assay (NCI-H1703). The format is cell-based, human. Conditions: Homo sapiens, 120 h; NCI-H1703 cells, 5 days incubation; geometric mean where repeated; read-out: Assay c) GLS Cell Proliferation Assay. The source says:
The following assays were used to measure the effects of the compounds of the present invention: a) GLS Enzyme Potency Assay; b) GLS Cell Potency Assay; c) GLS Cell Proliferation Assay; and d) Mouse Xenograft Model. During the description of the assays, generally: • i. The following abbreviations have been used: CO2=Carbon dioxide; DMEM=Dulbecco's Modified Eagle Medium; DMSO=Dimethyl sulphoxide; EDTA=Ethylenediaminetetraacetic acid; EGTA=Ethylene glycol tetraacetic acid; FCS=Foetal calf serum; h=Hour(s); NBS=Non-binding surface; SDS=Sodium dodecyl sulphate; r.t.=room temperature; TRIS=Tris(Hydroxymethyl)aminomethane. • ii. […]
The ability of compounds to inhibit cell growth was measured using a 384 well plate NCI-H1703 cell proliferation assay. NCI-H1703 cells were grown in phenol red free RPMI1640, 10% FCS and 2 mM glutamine and seeded at a density of 750 cells per well in 40 μl of growth medium into clear-bottom 384 well assay plates (Corning product code 3712) and incubated for 24 h at 37° C., 5% CO2. […] DMSO concentration was maintained at 0.3% by back filling with DMSO solution. Plates were incubated for 5 days at 37° C., 5% CO2, Sytox Green and Saponin added to final concentration of 2 μM and 0.25% respectively and incubated for 6 h prior to analysis. Plates were read on an Acumen eX3 (TTP Labtech) using 488 nm excitation and FITC filter set (500-530 nm) for emission. IC50 values were calculated by curve fitting to max inhibition of day zero growth using GeneData software analysis.

`CCO[C@@H](C(=O)Nc1nnc(N[C@@H]2CCN(c3cccnn3)C2)s1)c1ccc(OC)cc1` [28(b), (2R)-2-ethoxy-2-(4-methoxyphenyl)-N-[5-[[(3R)-1-pyridazin-3-ylpyrrolidin-3-yl]amino]-1,3,4-thiadiazol-2-yl]acetamide]: the IC50 worked out at 151 nM.

With `CO[C@@H](C(=O)Nc1nnc(N[C@@H]2CCN(c3cccnn3)C2)s1)c1cccc(OC(F)F)c1` [Example 7(b), (2R)-2-[3-(Difluoromethoxy)phenyl]-2-methoxy-N-[5-[[(3R)-1-pyridazin-3-ylpyrrolidin-3-yl]amino]-1,3,4-thiadiazol-2-yl]acetamide], the IC50 turned out to be 6.94 nM.

Consider `CCO[C@H](C(=O)Nc1nnc(N[C@@H]2CCN(c3cccnn3)C2)s1)c1cccc(OC(F)F)c1` [Example 15(a), (2S)-2-[3-(Difluoromethoxy)phenyl]-2-ethoxy-N-[5-[[(3R)-1-pyridazin-3-ylpyrrolidin-3-yl]amino]-1,3,4-thiadiazol-2-yl]acetamide], for which the IC50 came out at 0.921 nM.

In the case of `CO[C@@H](C(=O)Nc1nnc(N[C@@H]2CCN(c3nccnn3)C2)s1)c1ccccc1` [Example 1(b), (2R)-2-Methoxy-2-phenyl-N-[5-[[(3R)-1-(1,2,4-triazin-3-yl)pyrrolidin-3-yl]amino]-1,3,4-thiadiazol-2-yl]acetamide], the IC50 came to 2240 nM.

Take `[2H]C([2H])([2H])O[C@H](C(=O)Nc1nnc(N[C@@H]2CCN(c3cccnn3)C2)s1)c1ccccc1` [18(a), (2S)-2-phenyl-N-[5-[[(3R)-1-pyridazin-3-ylpyrrolidin-3-yl]amino]-1,3,4-thiadiazol-2-yl]-2-(trideuteriomethoxy)acetamide]: the IC50 was 1.88 nM.

As to `CO[C@H](C(=O)Nc1nnc(N[C@@H]2CCN(c3cncnn3)C2)s1)c1cccc(OC(F)(F)F)c1` [22(a), (2S)-2-methoxy-N-[5-[[(3R)-1-(1,2,4-triazin-6-yl)pyrrolidin-3-yl]amino]-1,3,4-thiadiazol-2-yl]-2-[3-(trifluoromethoxy)phenyl]acetamide], the IC50 was 10.7 nM.

Take `CO[C@H](C(=O)Nc1nnc(N[C@@H]2CCN(c3nccnn3)C2)s1)c1cccc(OC(F)(F)F)c1` [Example 8(a), (2S)-2-Methoxy-N-[5-[[(3R)-1-(1,2,4-triazin-3-yl)pyrrolidin-3-yl]amino]-1,3,4-thiadiazol-2-yl]-2-[3-(trifluoromethoxy)phenyl]acetamide]: the IC50 came to 5.04 nM.

Turning to `CCO[C@@H](C(=O)Nc1nnc(N[C@@H]2CCN(c3cccnn3)C2)s1)c1cccc(OC(F)F)c1` [Example 15(b), (2R)-2-[3-(Difluoromethoxy)phenyl]-2-ethoxy-N-[5-[[(3R)-1-pyridazin-3-ylpyrrolidin-3-yl]amino]-1,3,4-thiadiazol-2-yl]acetamide], the IC50 came to 2.47 nM.

Regarding `CO[C@H](C(=O)Nc1nnc(N[C@@H]2CCN(c3cccnn3)C2)s1)c1cccc(OC(F)F)c1` [Example 7(a), (2S)-2-[3-(Difluoromethoxy)phenyl]-2-methoxy-N-[5-[[(3R)-1-pyridazin-3-ylpyrrolidin-3-yl]amino]-1,3,4-thiadiazol-2-yl]acetamide], the IC50 was 2.23 nM.

With `CCO[C@@H](C(=O)Nc1nnc(N[C@@H]2CCN(c3cccnn3)C2)s1)c1cccc(OC(F)(F)F)c1` [Example 16(b), (2R)-2-Ethoxy-N-[5-[[(3R)-1-pyridazin-3-ylpyrrolidin-3-yl]amino]-1,3,4-thiadiazol-2-yl]-2-[3-(trifluoromethoxy)phenyl]acetamide], the IC50 was found to be 6.38 nM.

For the compound `CO[C@H](C(=O)Nc1nnc(N[C@@H]2CCN(c3nccnn3)C2)s1)c1ccc(F)cc1` [17(a), (2S)-2-(4-fluorophenyl)-2-methoxy-N-[5-[[(3R)-1-(1,2,4-triazin-3-yl)pyrrolidin-3-yl]amino]-1,3,4-thiadiazol-2-yl]acetamide], the IC50 was 3570 nM.

With `CCO[C@H](C(=O)Nc1nnc(N[C@@H]2CCN(c3cccnn3)C2)s1)c1cccc(OC)c1` [30(a), (2S)-2-ethoxy-2-(3-methoxyphenyl)-N-[5-[[(3R)-1-pyridazin-3-ylpyrrolidin-3-yl]amino]-1,3,4-thiadiazol-2-yl]acetamide], the IC50 worked out at 71.6 nM.

In the case of `CO[C@@H](C(=O)Nc1nnc(N[C@@H]2CCN(c3cccnn3)C2)s1)c1ccccc1` [Example 2(b), (2R)-2-Methoxy-2-phenyl-N-[5-[[(3R)-1-pyridazin-3-ylpyrrolidin-3-yl]amino]-1,3,4-thiadiazol-2-yl]acetamide], the IC50 was determined as 179 nM.

For `CCO[C@H](C(=O)Nc1nnc(N[C@@H]2CCN(c3cccnn3)C2)s1)c1cccc(OC(F)(F)F)c1` [Example 16(a), (2S)-2-Ethoxy-N-[5-[[(3R)-1-pyridazin-3-ylpyrrolidin-3-yl]amino]-1,3,4-thiadiazol-2-yl]-2-[3-(trifluoromethoxy)phenyl]acetamide], the IC50 was 1.32 nM.

With `[2H]C([2H])([2H])O[C@]([2H])(C(=O)Nc1nnc(N[C@@H]2CCN(c3cccnn3)C2)s1)c1ccccc1` [20(a), (2S)-2-deuterio-2-phenyl-N-[5-[[(3R)-1-pyridazin-3-ylpyrrolidin-3-yl]amino]-1,3,4-thiadiazol-2-yl]-2-(trideuteriomethoxy)acetamide], the IC50 is 1.94 nM.

As for `COc1ccc([C@@H](OC)C(=O)Nc2nnc(N[C@@H]3CCN(c4nccnn4)C3)s2)cc1OC` [26(b), (2R)-2-(3,4-dimethoxyphenyl)-2-methoxy-N-[5-[[(3R)-1-(1,2,4-triazin-3-yl)pyrrolidin-3-yl]amino]-1,3,4-thiadiazol-2-yl]acetamide], the IC50 came out at 101 nM.

`COc1ccc([C@H](OC)C(=O)Nc2nnc(N[C@@H]3CCN(c4nccnn4)C3)s2)cc1OC` [26(a), (2S)-2-(3,4-dimethoxyphenyl)-2-methoxy-N-[5-[[(3R)-1-(1,2,4-triazin-3-yl)pyrrolidin-3-yl]amino]-1,3,4-thiadiazol-2-yl]acetamide]: the IC50 is 2050 nM.

Regarding `CO[C@H](C(=O)Nc1nnc(N[C@@H]2CCN(c3nccnn3)C2)s1)c1ccccc1` [Example 1(a), (2S)-2-Methoxy-2-phenyl-N-[5-[[(3R)-1-(1,2,4-triazin-3-yl)pyrrolidin-3-yl]amino]-1,3,4-thiadiazol-2-yl]acetamide], the IC50 was determined as 53.5 nM.

Turning to `CO[C@H](C(=O)Nc1nnc(N[C@@H]2CCN(c3cccnn3)C2)s1)c1ccc(F)cc1` [Example 12(a), (2S)-2-(4-Fluorophenyl)-2-methoxy-N-[5-[[(3R)-1-pyridazin-3-ylpyrrolidin-3-yl]amino]-1,3,4-thiadiazol-2-yl]acetamide], the IC50 came to 13.5 nM.

In the case of `CCO[C@@H](C(=O)Nc1nnc(N[C@@H]2CCN(c3cccnn3)C2)s1)c1cccc(OC)c1` [30(b), (2R)-2-ethoxy-2-(3-methoxyphenyl)-N-[5-[[(3R)-1-pyridazin-3-ylpyrrolidin-3-yl]amino]-1,3,4-thiadiazol-2-yl]acetamide], the IC50 is 2.01 nM.

Take `CCO[C@H](C(=O)Nc1nnc(N[C@@H]2CCN(c3cccnn3)C2)s1)c1ccc(OC)cc1` [28(a), (2S)-2-ethoxy-2-(4-methoxyphenyl)-N-[5-[[(3R)-1-pyridazin-3-ylpyrrolidin-3-yl]amino]-1,3,4-thiadiazol-2-yl]acetamide]: the IC50 turned out to be 9.28 nM.

For the compound `CO[C@@H](C(=O)Nc1nnc(N[C@@H]2CCN(c3cncnn3)C2)s1)c1cccc(OC(F)F)c1` [23(b), (2R)-2-[3-(difluoromethoxy)phenyl]-2-methoxy-N-[5-[[(3R)-1-(1,2,4-triazin-6-yl)pyrrolidin-3-yl]amino]-1,3,4-thiadiazol-2-yl]acetamide], the IC50 was 35.4 nM.
